Nc1ccc(S(=O)(=O)Nc2ncccn2)cc1
solubility (mole fraction)
Details	278.15 K	283.15 K	288.15 K	293.15 K	298.15 K	303.15 K	308.15 K	313.15 K	318.15 K
in ethylene glycol	0.00034	0.000379	0.000413	0.00047	0.000532	0.000575	0.000637	0.000694	0.000752
in water	1.61e-06	2.01e-06	2.86e-06	3.8e-06	4.81e-06	6.49e-06	8.69e-06	1.14e-05	1.22e-05

From BigSolDB 2.1
